Test results taken from US10604555B2, “GIP derivatives and uses thereof” (priority 2018, dated 2020).
*1 amine or outer side, *2 acyl side, *3 side chain or, on linkers, in order; H or OH if unused. Where a SMILES comes first, the peptide text is derived from it. Where no end group is shown, it is not given here. Side-chain parts run from the residue outwards. [ ]: non-standard residue; d: D form. The star is where a group is joined. C18 diacid = O=C(O)CCCCCCCCCCCCCCCCC(=O)*; γGlu = O=C(O)[C@H](CCC(=O)[*:2])N[*:1]; Nle = CCCC[C@H](N)C(=O)O; AEEA = NCCOCCOCC(=O)O; Aib = CC(C)(N)C(=O)O

Tests used:
human GIP receptor = target: T1, human GIP receptor (Homo sapiens, UniProt P48546); assay: In vitro potency (CRE luciferase; whole cells), BHK CRE luc2P hGIPR; format: cell-based; conditions: 0.2% HSA
T1 construct: expressed in transfected cells; host or cells: BHK (parent line BHKTS13), BHK CRE luc2P hGIPR clone #5
T1 sequence (P48546 22-466): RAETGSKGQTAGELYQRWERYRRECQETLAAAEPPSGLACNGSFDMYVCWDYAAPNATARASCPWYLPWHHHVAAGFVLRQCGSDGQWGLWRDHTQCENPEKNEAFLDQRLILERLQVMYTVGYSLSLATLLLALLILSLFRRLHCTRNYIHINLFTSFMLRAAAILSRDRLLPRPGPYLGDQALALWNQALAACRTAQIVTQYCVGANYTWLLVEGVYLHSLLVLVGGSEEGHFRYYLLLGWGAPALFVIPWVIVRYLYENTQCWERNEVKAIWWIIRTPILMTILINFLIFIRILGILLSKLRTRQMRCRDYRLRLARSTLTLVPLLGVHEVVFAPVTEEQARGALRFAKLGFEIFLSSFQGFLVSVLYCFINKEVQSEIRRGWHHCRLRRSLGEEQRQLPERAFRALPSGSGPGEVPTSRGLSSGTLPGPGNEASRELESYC
Method in brief: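 BHK clones carrying a CRE luciferase element, each transfected with one human receptor, were seeded at 5000 cells/well overnight. Compounds were diluted in buffer with 1% ovalbumin and 0.1% Pluronic F-68, with or without human serum albumin. Luminescence was read after steadylite plus; non-linear log(agonist)-response fit, averaged over at least two replicates.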

[1] = Pharmacokinetic study in minipigs, terminal half-life after i.v. administration; format: in vivo; conditions: female, Göttingen, minipig, plasma, iv, 5 nmol/kg; read-out: t1/2 (hours) harmonic mean (converted)
Protocol: This is done in a pharmacokinetic (PK) study, where the terminal half-life of the derivative in question is determined. By terminal half-life is generally meant the period of time it takes to halve a certain plasma concentration, measured after the initial distribution phase.
Female Göttingen minipigs were obtained from Ellegaard Göttingen Minipigs (Dalmose, Denmark) approximately 7-14 months of age and weighing from approximately 16-35 kg were used in the studies. The minipigs were housed individually and fed restrictedly once daily with SDS minipig diet (Special Diets Services, Essex, UK).
After at 3 weeks of acclimatisation two permanent central venous catheters were implanted in vena cava caudalis in each animal. The animals were allowed 1 week recovery after the surgery, and were then used for repeated pharmacokinetic studies with a suitable wash-out period between successive derivative dosing.
Blood samples (for example 0.8 ml) were collected in EDTA buffer (8 mM) and then centrifuged at 4° C. and 1942G for 10 minutes.
Individual plasma concentration-time profiles were analysed by a non-compartmental model in Phoenix WnNonLin ver. […] (Pharsight Inc., Mountain View, Calif., USA), and the resulting terminal half-lives (harmonic mean) determined.

human GLP-1 receptor = target: T2, human GLP-1 receptor (Homo sapiens, UniProt P43220); assay: In vitro potency (CRE luciferase; whole cells), BHK CRE luc2P hGLP-1R; format: cell-based; conditions: 0.2% HSA
T2 construct: expressed in transfected cells; host or cells: BHK (parent line BHKTS13), BHK CRE luc2P hGLP-1R clone #6
T2 sequence (P43220 24-463): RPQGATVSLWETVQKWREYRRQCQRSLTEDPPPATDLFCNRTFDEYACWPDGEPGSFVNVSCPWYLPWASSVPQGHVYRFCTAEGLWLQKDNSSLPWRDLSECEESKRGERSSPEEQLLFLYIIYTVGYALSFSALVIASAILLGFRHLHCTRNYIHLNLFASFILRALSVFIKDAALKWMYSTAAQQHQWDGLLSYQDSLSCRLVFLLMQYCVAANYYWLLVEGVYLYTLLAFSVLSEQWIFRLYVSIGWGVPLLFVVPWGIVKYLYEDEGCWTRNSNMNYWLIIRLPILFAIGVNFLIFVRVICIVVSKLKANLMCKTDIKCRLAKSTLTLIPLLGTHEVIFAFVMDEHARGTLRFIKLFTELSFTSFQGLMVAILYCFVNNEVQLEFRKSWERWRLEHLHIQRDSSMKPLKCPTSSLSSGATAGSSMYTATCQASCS
Protocol: (§1) In Vitro Potency (CRE Luciferase; Whole Cells)
(§2) The in vitro potency is the measure of human GIP, GLP-1 or glucagon receptor activation, respectively, in a whole cell assay.
(§3) In vitro potency was determined by measuring the response of the human GIP, GLP-1 or glucagon receptor in a reporter gene assay in individual cell lines. […] When the respective receptor is activated it results in the production of cAMP, which in turn results in the luciferase protein being expressed. When assay incubation is completed the luciferase substrate (luciferin) is added and the enzyme converts luciferin to oxyluciferin to produce bioluminescence. The luminescence is measured as the readout for the assay.
(§4) The cells were derived from a clone containing the CRE luciferase element and were established by further transfection with the respective receptor to obtain the current clone.
(§5) The cells were cultured at 5% CO2 in Cell Culture Medium. They were aliquoted and stored in liquid nitrogen. The cells were kept in passage and were seeded out the day before each assay.
(§6) The Assay Buffer consisted of 1% ovalbumin and 0.1% Pluronic F-68 in Assay Medium with the addition of human serum albumin at twice the indicated concentrations.
(§7) 1) Cells were plated at 5000 cells/well and incubated overnight.
(§8) 2) Cells were washed three times in PBS.
(§9) 3) Assay Medium (50 μl aliquot) with or without serum albumin was added to each well in the assay plate.
(§10) 4) Stocks of the test compounds and reference compounds were diluted to a concentration of 0.2 μM in Assay Buffer. […] 8) The cells were washed three times with PBS plus some liquid in each well. 9) A 100 μl aliquot of steadylite plus reagent was added to each well of the assay plate (reagent was light sensitive). 10) Each assay plate was covered with aluminum foil to protect it from light and shaken for 30 min at room temperature. 11) Each assay plate was read in a microtiter plate reader. Calculations and Results
The data from the microtiter plate reader was transferred to GraphPad Prism software. The software performs a non-linear regression (log(agonist) vs response).
A minimum of two replicates was measured for each sample. The reported values are averages of the replicates.

human glucagon receptor = target: T3, human glucagon receptor (Homo sapiens, UniProt P47871); assay: In vitro potency (CRE luciferase; whole cells), BHK CRE luc2P hGCGR; format: cell-based; conditions: 0.2% HSA
T3 construct: expressed in transfected cells; host or cells: BHK (parent line BHKTS13), BHK CRE luc2P hGCGR clone #18
T3 sequence (P47871 26-477): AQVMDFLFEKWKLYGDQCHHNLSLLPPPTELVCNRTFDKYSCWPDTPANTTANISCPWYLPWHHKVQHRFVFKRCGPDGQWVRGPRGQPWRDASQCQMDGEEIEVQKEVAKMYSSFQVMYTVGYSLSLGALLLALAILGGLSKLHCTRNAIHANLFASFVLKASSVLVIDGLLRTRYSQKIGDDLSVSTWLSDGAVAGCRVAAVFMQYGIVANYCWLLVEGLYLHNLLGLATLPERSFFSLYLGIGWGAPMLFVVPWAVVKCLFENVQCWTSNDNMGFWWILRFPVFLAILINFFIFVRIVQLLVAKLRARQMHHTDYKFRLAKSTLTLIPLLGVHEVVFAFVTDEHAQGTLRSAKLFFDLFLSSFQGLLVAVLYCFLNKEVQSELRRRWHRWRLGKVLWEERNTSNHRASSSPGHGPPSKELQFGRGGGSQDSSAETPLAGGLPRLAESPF
Protocol: as §1, §2, §3, §4, §5, §6, §7, §8, §9, §10
The data from the microtiter plate reader was transferred to GraphPad Prism software. […]
A minimum of two replicates was measured for each sample. […]

Compound | EC50 (human GIP receptor) [nM] | half-life [1] [h] | EC50 (human GLP-1 receptor) [nM] | EC50 (human glucagon receptor) [nM]
CCCC[C@H](NC(=O)[C@H](C)NC(=O)[C@@H](NC(=O)[C@H](CO)NC(=O)[C@H](Cc1ccc(O)cc1)NC(=O)[C@H](CC(=O)O)NC(=O)[C@H](CO)NC(=O)[C@@H](NC(=O)[C@H](Cc1ccccc1)NC(=O)[C@@H](NC(=O)CNC(=O)[C@H](CCC(=O)O)NC(=O)[C@H](C)NC(=O)[C@@H](Cc1ccc(O)cc1)NC(C)=O)[C@@H](C)O)[C@@H](C)CC)[C@@H](C)CC)C(=O)N[C@@H](CC(=O)O)C(=O)N[C@@H](CCCCN)C(=O)N[C@H](C(=O)N[C@@H](CCCNC(=N)N)C(=O)N[C@@H](CCC(N)=O)C(=O)N[C@@H](CCC(N)=O)C(=O)N[C@@H](CC(=O)O)C(=O)N[C@@H](Cc1ccccc1)C(=O)N[C@H](C(=O)N[C@@H](CCCCNC(=O)COCCOCCNC(=O)COCCOCCNC(=O)CC[C@H](NC(=O)CC[C@H](NC(=O)CC[C@H](NC(=O)CCCCCCCCCCCCCCCCC(=O)O)C(=O)O)C(=O)O)C(=O)O)C(=O)N[C@@H](Cc1c[nH]c2ccccc12)C(=O)N[C@@H](CC(C)C)C(=O)N[C@@H](CC(C)C)C(=O)N[C@@H](C)C(=O)N[C@@H](CCC(N)=O)C(=O)N[C@@H](CCCCN)C(=O)NCC(=O)O)C(C)C)[C@@H](C)CC [Compound 17, N{1}-acetyl,N{Epsilon-24}-[2-[2-[2-[[2-[2-[2-[[(4S)-4-carboxy-4-[[(4S)-4-carboxy-4-[[(4S)-4-carboxy-4-(17-carboxyheptadecanoylamino)butanoyl]amino]butanoyl]amino]-butanoyl]amino]ethoxy]ethoxy]acetyl]amino]ethoxy]ethoxy]acetyl]-[D-Tyr1,Nle14,Arg18,Lys24]-hGIP(1-31)] | 0.0431 | 88 | – | –
CCCC[C@H](NC(=O)[C@H](C)NC(=O)[C@@H](NC(=O)[C@H](CO)NC(=O)[C@H](Cc1ccc(O)cc1)NC(=O)[C@H](CC(=O)O)NC(=O)[C@H](CO)NC(=O)[C@@H](NC(=O)[C@H](Cc1ccccc1)NC(=O)[C@@H](NC(=O)CNC(=O)[C@H](CCC(=O)O)NC(=O)C(C)(C)NC(=O)[C@@H](N)Cc1ccc(O)cc1)[C@@H](C)O)[C@@H](C)CC)[C@@H](C)CC)C(=O)N[C@@H](CC(=O)O)C(=O)N[C@@H](CCCCN)C(=O)N[C@H](C(=O)N[C@@H](CCCNC(=N)N)C(=O)N[C@@H](CCC(N)=O)C(=O)NC(C)(C)C(=O)N[C@@H](CC(=O)O)C(=O)N[C@@H](Cc1ccccc1)C(=O)N[C@H](C(=O)N[C@@H](CCCCNC(=O)CC[C@H](NC(=O)CC[C@H](NC(=O)CC[C@H](NC(=O)CCCCCCCCCCCCCCCCC(=O)O)C(=O)O)C(=O)O)C(=O)O)C(=O)N[C@@H](Cc1c[nH]c2ccccc12)C(=O)N[C@@H](CC(C)C)C(=O)N[C@@H](CC(C)C)C(=O)N[C@@H](C)C(=O)N[C@@H](CCC(N)=O)C(=O)N[C@@H](CCCCN)C(=O)NCC(=O)O)C(C)C)[C@@H](C)CC [Compound 11, N{Epsilon-24}-[(4S)-4-carboxy-4-[[(4S)-4-carboxy-4-[[(4S)-4-carboxy-4-(17-carboxyheptadecanoylamino)butanoyl]amino]butanoyl]amino]butanoyl]-[Aib2,Nle14,Arg18,Aib20,Lys24]-hGIP(1-31)] (H-Y[Aib]EGTFISDYSIA[Nle]DKIRQ[Aib]DFVK([γGlu-γGlu-γGlu-C18 diacid])WLLAQKG-OH) | 0.0094 | 89 | – | –
Y[Aib]EGTFISDYSIA[Nle]DKIHQQDFVK([AEEA-AEEA-γGlu-C18 diacid])WLLAQKGKEEDWKHNITQ [Compound 35, N{Epsilon-24}-[2-[2-[2-[[2-[2-[2-[[(4S)-4-carboxy-4-(17-carboxyheptadecanoylamino)butanoyl]amino]ethoxy]ethoxy]acetyl]amino]ethoxy]ethoxy]acetyl]-[Aib2,Nle14,Lys24,Glu33,Glu34]-hGIP] | 0.00545 | – | > 100 | > 100
CCCC[C@H](NC(=O)[C@H](C)NC(=O)[C@@H](NC(=O)[C@H](CO)NC(=O)[C@H](Cc1ccc(O)cc1)NC(=O)[C@H](CC(=O)O)NC(=O)[C@H](CO)NC(=O)[C@@H](NC(=O)[C@H](Cc1ccccc1)NC(=O)[C@@H](NC(=O)CNC(=O)[C@H](CCC(=O)O)NC(=O)[C@H](C)NC(=O)[C@@H](Cc1ccc(O)cc1)NC(C)=O)[C@@H](C)O)[C@@H](C)CC)[C@@H](C)CC)C(=O)N[C@@H](CC(=O)O)C(=O)N[C@@H](CCCCN)C(=O)N[C@H](C(=O)N[C@@H](CCCNC(=N)N)C(=O)N[C@@H](CCC(N)=O)C(=O)N[C@@H](CCC(N)=O)C(=O)N[C@@H](CC(=O)O)C(=O)N[C@@H](Cc1ccccc1)C(=O)N[C@H](C(=O)N[C@@H](CCCCNC(=O)CC[C@H](NC(=O)CC[C@H](NC(=O)CC[C@H](NC(=O)CCCCCCCCCCCCCCCCC(=O)O)C(=O)O)C(=O)O)C(=O)O)C(=O)N[C@@H](Cc1c[nH]c2ccccc12)C(=O)N[C@@H](CC(C)C)C(=O)N[C@@H](CC(C)C)C(=O)N[C@@H](C)C(=O)N[C@@H](CCC(N)=O)C(=O)N[C@@H](CCCCN)C(=O)NCC(=O)O)C(C)C)[C@@H](C)CC [Compound 7, N{1}-acetyl, N{Epsilon-24}-[(4S)-4-carboxy-4-[[(4S)-4-carboxy-4-[[(4S)-4-carboxy-4-(17-carboxyheptadecanoylamino)butanoyl]amino]butanoyl]amino]butanoyl]-[D-Tyr1,Nle14,Arg18, Lys24]-hGIP(1-31)] | 0.0489 | 84 | – | –
CCCC[C@H](NC(=O)[C@H](C)NC(=O)[C@@H](NC(=O)[C@H](CO)NC(=O)[C@H](Cc1ccc(O)cc1)NC(=O)[C@H](CC(=O)O)NC(=O)[C@H](CO)NC(=O)[C@@H](NC(=O)[C@H](Cc1ccccc1)NC(=O)[C@@H](NC(=O)CNC(=O)[C@H](CCC(=O)O)NC(=O)[C@H](C)NC(=O)[C@@H](Cc1ccc(O)cc1)NC(C)=O)[C@@H](C)O)[C@@H](C)CC)[C@@H](C)CC)C(=O)N[C@@H](CC(=O)O)C(=O)N[C@@H](CCCCN)C(=O)N[C@H](C(=O)N[C@@H](CCCNC(=N)N)C(=O)N[C@@H](CCC(N)=O)C(=O)N[C@@H](CCC(N)=O)C(=O)N[C@@H](CC(=O)O)C(=O)N[C@@H](Cc1ccccc1)C(=O)N[C@H](C(=O)N[C@@H](CCCCNC(=O)COCCOCCNC(=O)COCCOCCNC(=O)CC[C@H](NC(=O)CCCCCCCCCCCCCCCCC(=O)O)C(=O)O)C(=O)N[C@@H](Cc1c[nH]c2ccccc12)C(=O)N[C@@H](CC(C)C)C(=O)N[C@@H](CC(C)C)C(=O)N[C@@H](C)C(=O)N[C@@H](CCC(N)=O)C(=O)N[C@@H](CCCCN)C(=O)NCC(=O)O)C(C)C)[C@@H](C)CC [Compound 15, N{1}-acetyl,N{Epsilon-24}-[2-[2-[2-[[2-[2-[2-[[(4S)-4-carboxy-4-(17-carboxyheptadecanoylamino)butanoyl]amino]ethoxy]ethoxy]acetyl]amino]ethoxy]ethoxy]acetyl]-[D-Tyr1,Nle14,Arg18,Lys24]-hGIP(1-31)] | 0.0304 | 81 | – | –
